Data published in ChEMBL document CHEMBL4229400, “Covalent inhibitors of nicotinamide N-methyltransferase (NNMT) provide evidence for target engagement challenges in situ” (Bioorg Med Chem Lett, 2018).
Numbering of substitutions follows the chain as printed. Calls of active or inactive are those of the source. No cut-off for these calls is given here.

How the values were obtained:
[1] = molecular target: T1, Glutathione S-transferase omega-1 (Homo sapiens) (UniProt P78417); assay: Binding affinity to GSTO1 cysteine residue in human 786-O cell soluble proteomic lysate at 5 uM incubated for 1 hr followed by cell lysis by IA-alkyne probe based isoTOP-ABPP analysis
T1 sequence (whole entry): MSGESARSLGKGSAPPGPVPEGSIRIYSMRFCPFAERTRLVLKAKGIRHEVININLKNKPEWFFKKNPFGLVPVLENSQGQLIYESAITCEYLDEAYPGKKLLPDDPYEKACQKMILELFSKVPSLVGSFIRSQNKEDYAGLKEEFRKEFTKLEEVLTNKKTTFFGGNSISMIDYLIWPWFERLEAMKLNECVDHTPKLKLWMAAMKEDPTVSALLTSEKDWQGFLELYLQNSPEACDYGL

[2] = molecular target: T2, Nicotinamide N-methyltransferase (Homo sapiens, UniProt P40261); assay: (§1) Inhibition of NNMT in human 786-O cell lysate using d4-nicotinamide as substrate preincubated for 1 hr followed by substrate and SAM addition measured after 15 to 30 mins by LC-MS analysis
T2 sequence (P40261 whole entry): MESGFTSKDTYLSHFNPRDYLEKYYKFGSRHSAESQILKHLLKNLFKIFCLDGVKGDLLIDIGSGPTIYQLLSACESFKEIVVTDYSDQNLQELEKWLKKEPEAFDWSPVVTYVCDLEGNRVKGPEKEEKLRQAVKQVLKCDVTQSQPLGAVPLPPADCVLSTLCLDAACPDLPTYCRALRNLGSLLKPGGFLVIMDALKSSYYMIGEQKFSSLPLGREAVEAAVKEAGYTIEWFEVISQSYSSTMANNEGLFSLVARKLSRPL

[3] = molecular target: T3, Nicotinamide N-methyltransferase (Homo sapiens) (UniProt P40261); assay: as §1
T3 sequence (whole entry): T2 sequence (P40261 whole entry)

[4] = molecular target: T3, Nicotinamide N-methyltransferase (Homo sapiens); assay: Binding affinity to NNMT C115 residue in human 786-O cell soluble proteomic lysate at 5 uM incubated for 1 hr followed by cell lysis by IA-alkyne probe based isoTOP-ABPP analysis relative to control
[5] = molecular target: T3, Nicotinamide N-methyltransferase (Homo sapiens); assay: Binding affinity to NNMT C165 residue in human 786-O cell soluble proteomic lysate at 5 uM incubated for 1 hr followed by cell lysis by IA-alkyne probe based isoTOP-ABPP analysis relative to control
[6] = molecular target: T3, Nicotinamide N-methyltransferase (Homo sapiens); assay: Inhibition of SAH-rhodamine binding to NNMT in human 786-O cell soluble proteomic lysate assessed as ratio of observed rate constant to test compound concentration preincubated for 10 to 40 mins followed by SAH-rhodamine addition measured after 5 mins by Gel-based ABPP analysis
[7] = molecular target: T2, Nicotinamide N-methyltransferase; assay: (§2) Inhibition of SAH-rhodamine binding to NNMT in human 786-O cell soluble proteomic lysate preincubated for 1 hr followed by SAH-rhodamine addition measured after 5 mins by Gel-based ABPP analysis
[8] = molecular target: T3, Nicotinamide N-methyltransferase (Homo sapiens); assay: as §2
[9] = molecular target: T4, Heme oxygenase 2 (Homo sapiens) (UniProt P30519); assay: Binding affinity to HMOX2 cysteine residue in human 786-O cell soluble proteomic lysate at 5 uM incubated for 1 hr followed by cell lysis by IA-alkyne probe based isoTOP-ABPP analysis
T4 sequence (whole entry): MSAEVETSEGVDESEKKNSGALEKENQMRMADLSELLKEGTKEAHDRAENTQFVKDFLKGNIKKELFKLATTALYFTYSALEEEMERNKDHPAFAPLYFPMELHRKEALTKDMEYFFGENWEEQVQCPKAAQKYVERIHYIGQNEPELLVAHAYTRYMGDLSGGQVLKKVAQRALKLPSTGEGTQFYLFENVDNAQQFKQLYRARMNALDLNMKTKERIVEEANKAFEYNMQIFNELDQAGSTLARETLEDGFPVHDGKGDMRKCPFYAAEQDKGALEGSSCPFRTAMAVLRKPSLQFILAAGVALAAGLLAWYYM

[10] = molecular target: T3, Nicotinamide N-methyltransferase (Homo sapiens); assay: Binding affinity to NNMT C50 residue in human 786-O cell soluble proteomic lysate at 5 uM incubated for 1 hr followed by cell lysis by IA-alkyne probe based isoTOP-ABPP analysis relative to control
[11] = molecular target: T3, Nicotinamide N-methyltransferase (Homo sapiens); assay: Binding affinity to NNMT C75 residue in human 786-O cell soluble proteomic lysate at 5 uM incubated for 1 hr followed by cell lysis by IA-alkyne probe based isoTOP-ABPP analysis relative to control
[12] = molecular target: T3, Nicotinamide N-methyltransferase (Homo sapiens); assay: Binding affinity to NNMT C165 residue in human 786-O cell lysate at 5 uM incubated for 4 hrs followed by cell lysis by IA-alkyne probe based isoTOP-ABPP analysis
[13] = tested on: T5, Nicotinamide N-methyltransferase (Homo sapiens), P40261 [C165A]; assay: Inhibition of NNMT C165A mutant in human 786-O cell lysate using d4-nicotinamide as substrate preincubated for 1 hr followed by substrate and SAM addition measured after 15 to 30 mins by LC-MS analysis
T5 sequence (whole entry): T2 sequence (P40261 whole entry) with C165A

[14] = molecular target: T3, Nicotinamide N-methyltransferase (Homo sapiens); assay: Binding affinity to NNMT C165 residue in human 786-O cell soluble proteomic lysate at 1 to 5 uM incubated for 1 hr followed by cell lysis by IA-alkyne probe based isoTOP-ABPP analysis
[15] = molecular target: T6, Cytoskeleton-associated protein 4 (Homo sapiens) (UniProt Q07065); assay: Binding affinity to CKAP4 cysteine residue in human 786-O cell soluble proteomic lysate at 5 uM incubated for 1 hr followed by cell lysis by IA-alkyne probe based isoTOP-ABPP analysis
T6 sequence (whole entry): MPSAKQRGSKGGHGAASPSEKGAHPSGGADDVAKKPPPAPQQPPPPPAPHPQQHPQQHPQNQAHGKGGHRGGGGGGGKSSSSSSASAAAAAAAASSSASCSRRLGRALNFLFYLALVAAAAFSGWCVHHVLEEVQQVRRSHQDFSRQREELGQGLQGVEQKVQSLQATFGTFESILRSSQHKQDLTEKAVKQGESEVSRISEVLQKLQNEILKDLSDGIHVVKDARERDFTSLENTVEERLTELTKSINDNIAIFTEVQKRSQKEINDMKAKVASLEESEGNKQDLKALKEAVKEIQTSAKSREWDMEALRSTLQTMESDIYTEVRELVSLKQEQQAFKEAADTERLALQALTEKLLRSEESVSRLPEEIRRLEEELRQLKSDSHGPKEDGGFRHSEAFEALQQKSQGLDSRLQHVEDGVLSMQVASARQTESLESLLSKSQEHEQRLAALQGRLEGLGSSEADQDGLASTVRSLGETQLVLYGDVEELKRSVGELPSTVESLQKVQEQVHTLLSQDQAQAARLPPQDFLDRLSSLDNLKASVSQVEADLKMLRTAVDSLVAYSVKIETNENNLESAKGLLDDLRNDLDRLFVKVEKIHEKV

[16] = molecular target: T3, Nicotinamide N-methyltransferase (Homo sapiens); assay: Inhibition of SAH-rhodamine binding to NNMT in human 786-O cell soluble proteomic lysate at 2 uM preincubated for 1 hr followed by SAH-rhodamine addition measured after 5 mins by Gel-based ABPP analysis

Activity [1]: Active
IC50 [2]: 200 nM
inhibition [3]: Dose-dependent effect
fold change (FC) [4]: 1
fold change (FC) [5]: 20
Ratio [6]: 200 M⁻¹ s⁻¹
IC50 [7]: 410 nM
inhibition [8]: Dose-dependent effect
Activity [9]: Active
fold change (FC) [10]: 1.3
fold change (FC) [11]: 1.3
Activity [12]: inactive
inhibition [13]: inactive
Activity [14]: Active
Activity [15]: Active
inhibition [16]: Active
SMILES: CC(C)CCN(C(=O)CCl)c1cc(C(=O)Nc2cccnc2Cl)cc(C(F)(F)F)c1
